Tests used:
Format in all cases: cell-based
[1] = tested on: alpha-smooth muscle actin (α-SMA); experiment: Inhibition of TGF-β induced expression of alpha-smooth muscle actin (α-SMA) in CFSC cells (western blot); conditions: compound at 10 μM, TGF-β (10 ng/mL), 24 hours, band intensity vs TGF-β only
Procedure: The ability of a compound to inhabit the TGF-β induced expression of alpha-smooth muscle actin (α-SMA) was evaluated in CCl4-treated fat storing (CFSC) cells. α-SMA is considered as a reliable marker of hepatic stellate cell activation and a key biomarker for liver fibrosis.
CFSC cells maintained in a DMEM medium supplemented with 10% fetal bovine serum were seeded to 12-well culture dishes and grown to a confluence of 60-70% the next day. Culture was changed to a serum-free DMEM medium, and the cells were treated with a compound at 10 μM in the presence of TGF-β (10 ng/mL). The cells were incubated for another 24 hours. All culture was maintained at 37° C. in 5% carbon dioxide.
An NP-40 lysate solution (50 mM Tris (pH 7.4), 150 mM NaCl, 1% NP-40) with EDTA free cocktail added was used to lyse the cells on ice for 30 min. The lysate was collected and centrifuged at 4° C. for 10 min at 12,000 rpm. The pellet was discarded and the supernatant was transferred to a new tube. Cell lysates were loaded with 5× loading buffer and boiled for 10 min, resolved by 10% SDS-polyacrylamide gel electrophoresis (SDS-PAGE), and transferred to PVDF membrane. The membrane was blocked with 5% skim milk in Tris-buffered saline and TWEEN® 20 (TBST; 10 mM Tris-HCl (pH 8.0), 150 mM NaCl, 0.1% TWEEN® 20) for 1 h at room temperature and then incubated with α-SMA and β-actin antibodies overnight at 4° C. After washing twice with TBST, the membrane was probed with a horseradish […] anti-immunoglobulin (1:5000 dilution) for 1 h at room temperature. After two subsequent rinses in TBST, immunoreactive products were reacted with ECL and visualized by a UVP CHEMSTUDIO™ imaging system. The western blotting bands are quantitated using an ImageJ software. The percentage of inhibition was obtained by calculating the percentage decrease in the band intensity compared to the one treated with TGF-β only.
The results are summarized in Table 1, where A represents a value no less of 80% inhibition, B represents a value less than […] but no less than […], C represents a value less than 50% but no less than 30% inhibition, and D represents a value less than 30% inhibition with a compound at 10 μM.

[2] = tested on: MDA-MB-231 (breast cancer); experiment: Antiproliferative activity (CCK-8 cell viability), MDA-MB-231; conditions: Homo sapiens, 72 h, read-out: Antiproliferative activity in cancerous cells, MDA-MB-231 (inhibition of cell growth); for inhibition at 3.3 µM: Compound concentration: 3.3 μM; for inhibition at 10 µM: Compound concentration: 10 μM; for inhibition at 30 µM: Compound concentration: 30 μM
Method in brief: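 Growth inhibition of human MDA-MB-231 breast cancer cells was assessed with a Cell Counting Kit-8. Cells cultured in DMEM plus 10% FBS were seeded at 2,000-5,000 cells/well, treated after attachment, and kept 72 h at 37° C. CCK-8 solution (10 μL) was added for 4 h, and absorbance at 450 nm was compared with DMSO-treated controls.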

HepG2 (liver cancer) = experiment: Antiproliferative activity (CCK-8 cell viability), HepG2; conditions: Homo sapiens, 72 h, read-out: Antiproliferative activity in cancerous cells, HepG2 (inhibition of cell growth); for inhibition at 3.3 µM: Compound concentration: 3.3 μM; for inhibition at 10 µM: Compound concentration: 10 μM; for inhibition at 30 µM: Compound concentration: 30 μM
Method in brief: (§1)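 Growth inhibition graded in bands from percent viability against DMSO vehicle, read as CCK-8 absorbance at 450 nm. Compound tested at 3.3, 10 or 30 μM for 72 h, 37 °C; media contained 10% FBS: DMEM for HepG2/SW480, MEM for HeLa, F-12K for A549.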

SW480 (colon cancer) = experiment: Antiproliferative activity (CCK-8 cell viability), SW480; conditions: Homo sapiens, 72 h, read-out: Antiproliferative activity in cancerous cells, SW480 (inhibition of cell growth); for inhibition at 3.3 µM: Compound concentration: 3.3 μM; for inhibition at 10 µM: Compound concentration: 10 μM; for inhibition at 30 µM: Compound concentration: 30 μM
Method in brief: as §1

[3] = tested on: B16F10 (malignant melanoma); experiment: Antiproliferative activity (CCK-8 cell viability), B16F10; conditions: Mus musculus, 72 h, read-out: Antiproliferative activity in cancerous cells, B16F10 (inhibition of cell growth); for inhibition at 3.3 µM: B16-F10, Compound concentration: 3.3 μM; for inhibition at 10 µM: B16-F10, Compound concentration: 10 μM; for inhibition at 30 µM: B16-F10, Compound concentration: 30 μM
Method in brief: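 Cell growth inhibition was measured in B16F10 malignant melanoma cells with a Cell Counting Kit-8 viability assay. Cells were maintained in DMEM plus 10% fetal bovine serum, seeded at 2,000-5,000 cells/well in 96-well plates, and treated for 72 h at 37° C. Viability was expressed relative to DMSO-treated vehicle control wells.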

[4] = tested on: A431 (epidermoid carcinoma); experiment: Antiproliferative activity (CCK-8 cell viability), A431; conditions: Homo sapiens, 72 h, read-out: Antiproliferative activity in cancerous cells, A431 (inhibition of cell growth); for inhibition at 3.3 µM: A-431, Compound concentration: 3.3 μM; for inhibition at 10 µM: A-431, Compound concentration: 10 μM; for inhibition at 30 µM: A-431, Compound concentration: 30 μM
Method in brief: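 This growth inhibition assay used A431 cells maintained in Dulbecco's modified Eagle's medium plus 10% fetal bovine serum. Cells were seeded in 96-well plates, treated with compound for 72 h at 37° C., and then given 10 μL CCK-8 solution. After a further 4 h, absorbance was read at 450 nm.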

[5] = tested on: A549 (lung adenocarcinoma); experiment: Antiproliferative activity (CCK-8 cell viability), A549; conditions: Homo sapiens, 72 h, read-out: Antiproliferative activity in cancerous cells, A549 (inhibition of cell growth); for inhibition at 3.3 µM: Compound concentration: 3.3 μM; for inhibition at 10 µM: Compound concentration: 10 μM; for inhibition at 30 µM: Compound concentration: 30 μM
Method in brief: as §1

HeLa (cervical cancer) = experiment: Antiproliferative activity (CCK-8 cell viability), HeLa; conditions: Homo sapiens, 72 h, read-out: Antiproliferative activity in cancerous cells, HELA (inhibition of cell growth); for inhibition at 3.3 µM: Compound concentration: 3.3 μM; for inhibition at 10 µM: Compound concentration: 10 μM; for inhibition at 30 µM: Compound concentration: 30 μM
Method in brief: as §1

Compound	inhibition at 10 µM [1] [%]	inhibition at 3.3 µM [2] [%]	inhibition at 10 µM [2] [%]	inhibition at 3.3 µM (HepG2 (liver cancer)) [%]	inhibition at 10 µM (HepG2 (liver cancer)) [%]	inhibition at 3.3 µM (SW480 (colon cancer)) [%]	inhibition at 10 µM (SW480 (colon cancer)) [%]	inhibition at 3.3 µM [3] [%]	inhibition at 10 µM [3] [%]	inhibition at 3.3 µM [4] [%]	inhibition at 10 µM [4] [%]	inhibition at 3.3 µM [5] [%]	inhibition at 10 µM [5] [%]	inhibition at 3.3 µM (HeLa (cervical cancer)) [%]	inhibition at 10 µM (HeLa (cervical cancer)) [%]	inhibition at 30 µM [2] [%]	inhibition at 30 µM (HepG2 (liver cancer)) [%]	inhibition at 30 µM (SW480 (colon cancer)) [%]	inhibition at 30 µM [3] [%]	inhibition at 30 µM [4] [%]	also measured
O=C(O)CC1=C(Cc2ccccc2)/C(=C/c2ccc(COc3ccccc3)cc2)c2ccc(F)cc21 [A1, (Z)-2-(2-Benzyl-5-fluoro-1-(4-(phenoxymethyl)benzylidene)-1H-inden-3-yl)-acetic acid]	> 80	≥ 50	≥ 50	30 to 50	≥ 50	≥ 50	≥ 50	30 to 50	≥ 50	30 to 50	≥ 50	< 30	30 to 50	≥ 50	≥ 50						
CC1=C(CCO)c2cc(F)ccc2/C1=C\c1cccc(Oc2ccccc2)c1 [A202, (Z)-2-(5-Fluoro-2-methyl-1-(3-phenoxybenzylidene)-1H-inden-3-yl)ethan-1-ol]	< 30																				
CC1=C(CC(=O)O)c2cc(F)ccc2/C1=C\c1ccc(COc2ccc(F)cc2)cc1F [B23, (Z)-2-(5-Fluoro-1-(2-fluoro-4-((4-fluorophenoxy)methyl)benzylidene)-2-methyl-1H-inden-3-yl)acetic acid]	50 to 80																				
COc1cc(COc2ccc(F)cc2)ccc1/C=C1/C(C)=C(CC(=O)O)c2cc(F)ccc21 [B25, (Z)-2-(5-Fluoro-1-(4-((4-fluorophenoxy)methyl)-2-methoxybenzylidene)-2-methyl-1H-inden-3-yl)acetic acid]	> 80																				
CC1=C(CCC(=O)O)c2ccccc2/C1=C\c1cccc(Oc2ccccc2)c1 [C24, (Z)-3-(2-Methyl-1-(3-phenoxybenzylidene)-1H-inden-3-yl)propanoic acid]	< 30																				
CC1=C(C=CC(=O)O)c2cc(F)ccc2/C1=C\c1ccc(Oc2ccc(F)cc2)cc1 [C33, 3-(5-Fluoro-1-((Z)-4-(4-fluorophenoxy)benzylidene)-2-methyl-1H-inden-3-yl)-acrylic acid]	> 80																				
CC1=C(C(C)C(=O)O)c2ccccc2/C1=C\c1ccc(C(C)C)cc1 (stereo not drawn) [D3, (Z)-2-(1-(4-Isopropylbenzylidene)-2-methyl-1H-inden-3-yl)propanoic acid]	< 30																				
CC1=C(CC(=O)O)c2cc(F)ccc2/C1=C/c1ccc(CO)cc1 [E40, (E)-2-(5-Fluoro-1-(4-(hydroxymethyl)benzylidene)-2-methyl-1H-inden-3-yl)acetic acid]		< 30	≥ 50	< 30	< 30	< 30	≥ 50	< 30	< 30	< 30	≥ 50	< 30	≥ 50	< 30	< 30	≥ 50	< 30	≥ 50	30 to 50	≥ 50	inhibition at 30 µM [5]: ≥ 50%; inhibition at 30 µM (HeLa (cervical cancer)): ≥ 50%
CC1=C(CC(=O)O)c2cc(Cl)ccc2/C1=C/c1ccc(Oc2ccc(F)cc2)cc1 [E41, (E)-2-(5-Chloro-1-(4-(4-fluorophenoxy)benzylidene)-2-methyl-1H-inden-3-yl)acetic acid]		< 30	≥ 50	< 30	≥ 50	30 to 50	≥ 50	< 30	≥ 50	≥ 50	≥ 50	< 30	30 to 50	< 30	≥ 50	≥ 50	≥ 50	≥ 50	≥ 50	≥ 50	inhibition at 30 µM [5]: ≥ 50%; inhibition at 30 µM (HeLa (cervical cancer)): ≥ 50%
CC1=C(CC(=O)O)c2cc(F)ccc2/C1=C/c1ccc(Oc2ccc(Cl)cc2)cc1 [E42, (E)-2-(1-(4-(4-Chlorophenoxy)benzylidene)-5-fluoro-2-methyl-1H-inden-3-yl)acetic acid]		< 30	< 30	< 30	30 to 50	30 to 50	≥ 50	< 30	30 to 50	≥ 50	≥ 50	< 30	30 to 50	30 to 50	≥ 50	≥ 50	≥ 50	≥ 50	≥ 50	≥ 50	inhibition at 30 µM [5]: ≥ 50%; inhibition at 30 µM (HeLa (cervical cancer)): ≥ 50%
